Structure (SMILES): COC(=O)c1c(C)[nH]c(-c2cc(Cl)ccn2)c1C(=O)OC
- logP: 2.63

Structure (SMILES): O=C(OCC1OC(n2cc(I)c(=O)[nH]c2=O)CC1O)c1ccc([N+](=O)[O-])cc1 (centres undefined)
- logP: 1.24

Structure (SMILES): CCN(CC)C(=O)c1ccccc1C
- logP: 2.02

Structure (SMILES): NC1C2CCC1c1cc(C(F)(F)F)ccc1C2 (centres undefined)
- logP: 3.59

Structure (SMILES): S=C=Nc1cccc(Cl)c1
- logP: 3.36

Structure (SMILES): O=C(O)CCCCCOc1cccc2ccccc12
- logP: 4.5

Structure (SMILES): CC1NC(=O)NC1=O (centres undefined)
- logP: -0.91

Structure (SMILES): CCCC1=Nc2cc(Cl)c(S(N)(=O)=O)cc2S(=O)(=O)N1
- logP: 1.21

Structure (SMILES): CC(=O)N1CCCC1=O
- logP: -0.05

Structure (SMILES): CC(=O)OCC1=C(C(=O)O)N2C(=O)[C@@H](NC(=O)CSc3ccncc3)[C@H]2SC1
- logP: -1.15

Structure (SMILES): O=C1C=CC(=O)c2c(O)ccc(O)c21
- logP: 1.79

Structure (SMILES): CCNc1nc(C)c(C(=O)CCN(CC)CC)s1
- logP: 2.72

Structure (SMILES): Clc1ccc(-c2ccc(Cl)cc2)cc1
- logP: 5.23

Structure (SMILES): Nc1ccc(C(=O)O)cc1N
- logP: 0.13

Structure (SMILES): O=C(Cc1nc(I)c([N+](=O)[O-])[nH]1)NCc1cccnc1
- logP: 0.88

Structure (SMILES): CCCOC(=O)c1ccoc1
- logP: 2.36

Structure (SMILES): O=C1CN=C(c2ccccc2)c2cc(Cl)ccc2N1CC(F)(F)F
- logP: 3.97

Structure (SMILES): CCCCC(NC(Cc1ccccc1)C(=O)N1CCC(OCOC)CC1)C(=O)NC(CC1CCCCC1)C(O)CC(C(=O)NCCCN1CCOCC1)C(C)C (centres undefined)
- logP: 4.5

Structure (SMILES): O=P(OCC(Br)CBr)(OCC(Br)CBr)OCC(Br)CBr (centres undefined)
- logP: 4.29

Structure (SMILES): Cc1cccc(Nc2c([N+](=O)[O-])c(C)nn2-c2ccccc2)c1
- logP: 3.25

Structure (SMILES): CC(C)OC(=O)C(C(=O)OC(C)C)=C1SC=CS1
- logP: 3.75

Structure (SMILES): O=C1NC(=O)C(Cc2ccccc2)(Cc2ccccc2)N1
- logP: 2.46

Structure (SMILES): CC(=O)N(C)C1=NC(=O)C(=Cc2ccc([N+](=O)[O-])o2)S1
- logP: 1.05

Structure (SMILES): CCOC(=O)c1cnc2n(c1=O)CC(C)CC2 (centres undefined)
- logP: 0.71

Structure (SMILES): CCOC(=O)NC1=NCC(c2cccc(C)c2C)N1C (centres undefined)
- logP: 2.57

Structure (SMILES): CC1CCCc2ncc(C(N)=O)c(=O)n21 (centres undefined)
- logP: 0.04

Structure (SMILES): O=c1c2ccccc2nc2n1CCCC2
- logP: 1.52

Structure (SMILES): O=C(OCn1c(=O)[nH]cc(F)c1=O)Oc1ccccc1
- logP: 1.11

Structure (SMILES): OC(Cn1ccnc1)(c1ccc(F)cc1)c1ccc(Br)cc1 (centres undefined)
- logP: 3.42

Structure (SMILES): CC(=O)Nc1ccc(Cl)cc1
- logP: 2.09

Structure (SMILES): CCCCCCC(=O)O
- logP: 2.42

Structure (SMILES): CCn1cc(C(=O)O)c(=O)c2cc(F)c(N3CCN(C)CC3)c(F)c21
- logP: 0.3

Structure (SMILES): O=C1CN=C(c2ccccc2F)c2cc(Cl)ccc2N1CC(F)(F)F
- logP: 3.36

Structure (SMILES): CN(C)CCN(Cc1cccs1)c1ccccn1
- logP: 2.87

Structure (SMILES): COC(=O)c1ccccc1O
- logP: 2.55

Structure (SMILES): CCCc1ccc(OCC(OC(=O)n2ccnc2)C(C)(C)C)cc1 (centres undefined)
- logP: 4.73

Structure (SMILES): CNC(=O)NCCCCn1nc(-c2ccccc2)ccc1=O
- logP: 1.23

Structure (SMILES): Cn1c(S)nnc(-c2ccc(F)cc2)c1=O
- logP: 2.38

Structure (SMILES): Cc1ccccc1C(=O)C(C)CN1CCCCC1 (centres undefined)
- logP: 3.69

Source: the OPERA property sets (Mansouri et al. 2018)
